Experimental findings from US7829560B2, “1,4-disubstituted naphthalenes as inhibitors of P38 MAP kinase” (Arqule, Inc., priority 2004, dated 2010) are described below.

Data set [1] has as its target T1, p38α (Homo sapiens, UniProt Q16539).
T1 construct: p38 MAP Kinases are recombinant human full-length proteins with an amino-terminal GST fusion; GST (N); purchased Upstate Biotechnology Inc; host or cells: E. coli
Put plainly: p38 MAP Kinase assay: inhibition of ATF2 phosphorylation, ELISA. It is filed as biochemical. The following applies: ATF2 phosphorylation; read-out: [ENZ] P38 ALPHA, IC50, ELISA. A digest of the protocol: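 In vitro phosphorylation of ATF2 at Thr69 by recombinant human GST-p38 MAP kinase, read by anti-phospho-ATF2 ELISA at 450 nm. Enzyme and compound pre-incubated 15 min at RT, then 30 min reaction at 37 °C with 40 μM ATP and 1.25 μM ATF2; buffer with or without 1% HSA (Method II or I).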

For data set [2], the system named is TNFα release from THP-1 cells. Put plainly: Inhibition of TNFα release from LPS-stimulated THP-1 cells, ELISA. It counts as cell-based. The following applies: Homo sapiens, THP-1, THP-1 cells, read-out: [CELL] THP-1, IC50, TNF ALPHA, ELISA. A digest of the protocol: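 TNFα released into supernatant after 18 h of 10 μg/ml LPS stimulation was quantified by ELISA and IC50 taken as 50% reduction by non-linear regression. THP-1 cells (10^6/ml; medium with 10% FBS, serum-free or 1% HSA) saw compound for 30 min at 37 °C beforehand; final DMSO ≤0.5%.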

T1 sequence (Q16539 whole entry, the tested form may be a part): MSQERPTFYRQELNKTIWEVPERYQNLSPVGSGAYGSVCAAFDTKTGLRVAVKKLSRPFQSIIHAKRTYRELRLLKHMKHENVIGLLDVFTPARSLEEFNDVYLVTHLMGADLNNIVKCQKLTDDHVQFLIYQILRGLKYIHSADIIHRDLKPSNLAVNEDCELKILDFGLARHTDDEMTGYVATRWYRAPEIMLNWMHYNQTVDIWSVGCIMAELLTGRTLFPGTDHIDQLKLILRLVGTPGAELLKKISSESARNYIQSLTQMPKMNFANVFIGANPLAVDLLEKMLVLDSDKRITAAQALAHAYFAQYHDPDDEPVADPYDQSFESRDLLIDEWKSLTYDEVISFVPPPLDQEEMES

In turn, `O=C(Nc1ccc(OCCCN2CCC3(CC2)OCCO3)c2ccccc12)c1cc(F)cc(N2CCCCC2)c1` [Compound B166, N-{4-[3-(1,4-Dioxa-8-aza-spiro[4.5]dec-8-yl)-propoxy]-naphthalen-1-yl}-3-fluoro-5-piperidin-1-yl-benzamide] yielded a melting point of 70 to 72 °C. Also, the IC50 in data set [1] was determined as 4.81 µM.

As to `O=C(Nc1ccc(OCc2ccoc2)c2ccccc12)c1cc(F)cc(N2CCCCC2)c1` [Compound B180, 3-Fluoro-N-[4-(3-furylmethoxy)-1-naphthyl]-5-piperidin-1-ylbenzamide], the melting point is 152 to 153 °C. The half-inhibitory concentration (IC50) in data set [1] is 4.04 µM.

Turning to `CCOC(=O)N1CCN(c2nccc(Oc3ccc(NC(=O)c4cc(F)cc(N5CCOCC5)c4)c4ccccc34)n2)CC1` [Compound B329, Ethyl-4-[4-({4-[(3-fluoro-5-morpholin-4-ylbenzoyl)amino]-1-naphthyl}oxy)pyrimidin-2-yl]piperazine-1-carboxylate], the IC50 in data set [2] is > 1 µM; in data set [1], 0.0105 µM.

In the case of `N#CNc1nccc(Oc2ccc(NC(=O)c3cc(F)cc(N4CCOCC4)c3)c3ccccc23)n1` [Compound B330, N-(4-{[2-(Cyanoamino)pyrimidin-4-yl]oxy}-1-naphthyl)-3-fluoro-5-morpholin-4-ylbenzamide], the IC50 in data set [2] was > 1 µM; in data set [1], 0.0515 µM.

On to `COCC(C)Nc1nccc(Oc2ccc(NC(=O)c3cc(F)cc(N4CCOCC4)c3)c3ccccc23)n1` (stereo not drawn) [Compound B353], for which the IC50 in data set [2] is 0.0926 µM; in data set [1], 0.0039 µM.

`CC(=O)N1CCN(c2nccc(Oc3ccc(NC(=O)c4cc(F)cc(N5CCOCC5)c4)c4ccccc34)n2)CC1` [Compound B354]: the IC50 turned out to be 0.217 µM in data set [2] and 0.0094 µM in data set [1].

As to `CC1CCCN1c1nccc(Oc2ccc(NC(=O)c3cc(F)cc(N4CCOCC4)c3)c3ccccc23)n1` (stereo not drawn) [Compound B355], the IC50 in data set [2] was found to be 0.878 µM; in data set [1], 0.0687 µM.

As for `CN(C)C(=O)[C@@H]1CCCN1c1nccc(Oc2ccc(NC(=O)c3cc(F)cc(N4CCOCC4)c3)c3ccccc23)n1` [Compound B356], the IC50 was > 1 µM in data set [2] and 0.264 µM in data set [1].

`COC(CNc1nccc(Oc2ccc(NC(=O)c3cc(F)cc(N4CCOCC4)c3)c3ccccc23)n1)OC` [Compound B357]: the IC50 amounted to 0.0301 µM in data set [2] and 0.003 µM in data set [1].

For `O=C(Nc1ccc(Oc2ccnc(NC[C@@H]3CCCO3)n2)c2ccccc12)c1cc(F)cc(N2CCOCC2)c1` [Compound B358], the results for the IC50 in data set [2] and in data set [1] were 0.0095 µM and 0.0032 µM, respectively.

On to `O=C(Nc1ccc(Oc2ccnc(N3CCC(CO)CC3)n2)c2ccccc12)c1cc(F)cc(N2CCOCC2)c1` [Compound B359], for which the figures for the IC50 in data set [2] and in data set [1] were 0.104 µM and 0.0042 µM, respectively.

As for `CCN1CCC[C@H]1CNc1nccc(Oc2ccc(NC(=O)c3cc(F)cc(N4CCOCC4)c3)c3ccccc23)n1` [Compound B360], the figures for the IC50 in data set [2] and in data set [1] were 0.063 µM and 0.0225 µM, respectively.

Turning to `O=C(Nc1ccc(Oc2ccnc(N3CCC(F)(F)CC3)n2)c2ccccc12)c1cc(F)cc(N2CCOCC2)c1` [Compound B361], the IC50 in data set [2] was 0.475 µM; in data set [1], 0.0555 µM.

For `CN(CCO)c1nccc(Oc2ccc(NC(=O)c3cc(F)cc(N4CCCCC4)c3)c3ccccc23)n1` [Compound B373], the IC50 in data set [2] amounted to 0.674 µM; in data set [1], 0.0209 µM.

`O=C(Nc1ccc(Oc2ccnc(N3CCCCC3)n2)c2ccccc12)c1cc(F)cc(N2CCCCC2)c1` [Compound B375, 3-Fluoro-5-piperidin-1-yl-N-{4-[(2-piperidin-1-ylpyrimidin-4-yl)oxy]-1-naphthyl}benzamide]: the IC50 in data set [2] is > 1 µM; in data set [1] it was 0.107 µM.

Take `O=C(Nc1ccc(Oc2ccnc(NCC3CCCO3)n2)c2ccccc12)c1cc(F)cc(N2CCCCC2)c1` (stereo not drawn) [Compound B386, 3-Fluoro-5-piperidin-1-yl-N-[4-({2-[(tetrahydrofuran-2-ylmethyl)amino]pyrimidin-4-yl}oxy)-1-naphthyl]benzamide]: the figures for the IC50 in data set [2] and in data set [1] were 0.0262 µM and 0.0018 µM, respectively.

`CC1CC(C)CN(c2nccc(Oc3ccc(NC(=O)c4cc(F)cc(N5CCCCC5)c4)c4ccccc34)n2)C1` (stereo not drawn) [Compound B391]: the results for the IC50 in data set [2] and in data set [1] were > 1 µM and 0.207 µM, respectively.

Consider `O=C(Nc1ccc(Oc2ccnc(N3CCC(O)C3)n2)c2ccccc12)c1cc(F)cc(N2CCCCC2)c1` (stereo not drawn) [Compound B393], for which the figures for the IC50 in data set [2] and in data set [1] were 0.715 µM and 0.0168 µM, respectively.

In the case of `CC(C)Nc1nccc(Oc2ccc(NC(=O)c3cc(F)cc(N4CCCCC4)c3)c3ccccc23)n1` [Compound B396, 3-Fluoro-N-(4-{[2-(isopropylamino)pyrimidin-4-yl]oxy}-1-naphthyl)-5-piperidin-1-ylbenzamide], the IC50 was found to be 0.201 µM in data set [2] and 0.006 µM in data set [1].

For `O=C(Nc1ccc(Oc2ccnc(NC3(CO)CCCC3)n2)c2ccccc12)c1cc(F)cc(N2CCCCC2)c1` [Compound B399, 3-Fluoro-N-{4-[(2-{[1-(hydroxymethyl)cyclopentyl]amino}pyrimidin-4-yl)oxy]-1-naphthyl}-5-piperidin-1-ylbenzamide], the results for the IC50 in data set [2] and in data set [1] were 0.136 µM and 0.0127 µM, respectively.

For `CCOC(=O)N1CCC(Nc2nccc(Oc3ccc(NC(=O)c4cc(F)cc(N5CCCCC5)c4)c4ccccc34)n2)CC1` [Compound B401, Ethyl-4-{[4-({4-[(3-fluoro-5-piperidin-1-ylbenzoyl)amino]-1-naphthyl}oxy)pyrimidin-2-yl]amino}piperidine-1-carboxylate], the IC50 was found to be 1.1 µM in data set [2] and 0.0256 µM in data set [1].

On to `O=C(Nc1ccc(Oc2ccnc(NC3CCS(=O)(=O)C3)n2)c2ccccc12)c1cc(F)cc(N2CCCCC2)c1` (stereo not drawn) [Compound B406], for which the IC50 in data set [2] worked out at 0.117 µM; in data set [1], 0.0196 µM.

On to `CN1CCC(Nc2nccc(Oc3ccc(NC(=O)c4cc(F)cc(N5CCCCC5)c4)c4ccccc34)n2)CC1` [Compound B409, 3-Fluoro-N-[4-({2-[(1-methylpiperidin-4-yl)amino]pyrimidin-4-yl}oxy)-1-naphthyl]-5-piperidin-1-ylbenzamide], for which the figures for the IC50 in data set [2] and in data set [1] were 0.0687 µM and 0.0018 µM, respectively.

`CN(C(=N)N)c1nccc(Oc2ccc(NC(=O)c3cc(F)cc(N4CCCCC4)c3)c3ccccc23)n1` [Compound B413]: the figures for the IC50 in data set [2] and in data set [1] were > 1 µM and 0.0363 µM, respectively.

For `O=C(Nc1ccc(Oc2ccnc(N3CCC(CO)CC3)n2)c2ccccc12)c1cc(F)cc(N2CCCCC2)c1` [Compound B415, 3-Fluoro-N-[4-({2-[4-(hydroxymethyl)piperidin-1-yl]pyrimidin-4-yl}oxy)-1-naphthyl]-5-piperidin-1-ylbenzamide], the IC50 was 0.162 µM in data set [2] and 0.0061 µM in data set [1].

Take `CC1=NCCN1c1nccc(Oc2ccc(NC(=O)c3cc(F)cc(N4CCCCC4)c3)c3ccccc23)n1` [Compound B417, 3-Fluoro-N-(4-{[2-(2-methyl-4,5-dihydro-1 H-imidazol-1-yl)pyrimidin-4-yl]oxy}-1-naphthyl)-5-piperidin-1-ylbenzamide]: the IC50 was 0.336 µM in data set [2] and 0.0127 µM in data set [1].

For the molecule `CCN1CCC[C@H]1CNc1nccc(Oc2ccc(NC(=O)c3cc(F)cc(N4CCCCC4)c3)c3ccccc23)n1` [Compound B419, N-(4-{[2-({[(2S)-1-Ethylpyrrolidin-2-yl]methyl}amino)pyrimidin-4-yl]oxy}-1-naphthyl)-3-fluoro-5-piperidin-1-ylbenzamide], the IC50 in data set [2] is 0.0554 µM; in data set [1], 0.003 µM.
